Measured values published in patent publication US10351575B2, “Bicyclic urea, thiourea, guanidine and cyanoguanidine compounds useful for the treatment of pain” (Array BioPharma Inc., priority 2012, dated 2019).
pIC50: −log10 of the molar value.

target: His-tagged recombinant human TrkA (Homo sapiens (Human), UniProt P04629); assay: TrkA LanthaScreen Eu Kinase Binding Assay; conditions: averaged IC50; TR-FRET binding, 60 min, 22° C.; read-out: TrkA Enzyme IC50
How it was run: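 Three-fold compound dilutions (2% DMSO final) were incubated 60 min at 22° C. with 5 nM His-TrkA cytoplasmic domain, tracer 236 (4 nM), biotinylated anti-His (2 nM) and europium streptavidin (2 nM) in MOPS pH 7.5 buffer. Emission ratio 665/615 gave percent of control; four-parameter fit yielded IC50.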

Chain of His-tagged recombinant human TrkA (P04629 440-796): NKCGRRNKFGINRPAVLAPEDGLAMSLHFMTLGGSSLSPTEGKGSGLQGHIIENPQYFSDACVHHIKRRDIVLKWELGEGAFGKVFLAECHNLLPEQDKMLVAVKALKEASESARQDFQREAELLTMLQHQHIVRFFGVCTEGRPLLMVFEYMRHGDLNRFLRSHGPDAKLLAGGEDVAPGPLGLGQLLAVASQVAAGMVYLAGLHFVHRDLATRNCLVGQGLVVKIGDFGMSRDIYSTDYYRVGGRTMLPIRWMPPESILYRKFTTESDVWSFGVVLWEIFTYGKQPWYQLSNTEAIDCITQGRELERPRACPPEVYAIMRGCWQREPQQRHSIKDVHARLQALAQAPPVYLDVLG

`COc1nn(-c2ccccc2)c(NC(=O)N[C@@H]2c3ccccc3C(C)(C)C[C@H]2O)c1C` [Example 144, 1-((1R,2R)-2-hydroxy-4,4-dimethyl-1,2,3,4-tetrahydronaphthalen-1-yl)-3-(3-methoxy-4-methyl-1-phenyl-1H-pyrazol-5-yl)urea] and `COc1nn(-c2ccccc2)c(NC(=O)N[C@@H]2c3ccccc3C3(CC3)C[C@H]2O)c1C` (relative stereo) [Example 152, 1-(trans-3′-hydroxy-3′,4′-dihydro-2′H-spiro[cyclopropane-1,1′-naphthalen]-4′-yl)-3-(3-methoxy-4-methyl-1-phenyl-1H-pyrazol-5-yl)urea] cannot be ordered by pIC50: over 7.00 for the first, over 7.00 for the second.

`CN1CCO[C@@H](COc2nn(-c3ccccc3)c(NC(=O)N[C@@H]3c4ccccc4C4(CC4)[C@H]3O)c2Cl)C1` [Example 141, 1-(4-chloro-3-(((R)-4-methylmorpholin-2-yl)methoxy)-1-phenyl-1H-pyrazol-5-yl)-3-((2′R,3′R)-2′-hydroxy-2′,3′-dihydrospiro[cyclopropane-1,1′-inden]-3′-yl)urea] and `COc1nn(-c2ccccc2)c(NC(=O)N[C@@H]2c3ccccc3C(C)(C)C[C@H]2O)c1C` (relative stereo) [Example 97, 1-(trans-2-hydroxy-4,4-dimethyl-1,2,3,4-tetrahydronaphthalen-1-yl)-3-(3-methoxy-4-methyl-1-phenyl-1H-pyrazol-5-yl)urea] cannot be ordered by pIC50: over 7.00 for the first, over 7.00 for the second.

`Cc1c(-c2ccc(=O)n(C)c2)nn(-c2ccccc2)c1NC(=O)NC1CCN(C)c2ccccc21` (stereo not drawn) [Example 41, 1-(1-methyl-1,2,3,4-tetrahydroquinolin-4-yl)-3-(4-methyl-3-(1-methyl-6-oxo-1,6-dihydropyridin-3-yl)-1-phenyl-1H-pyrazol-5-yl)urea] and `COc1nn(-c2ccccc2)c(NC(=O)NC2CCN(C)c3ccccc32)c1C` (stereo not drawn) [Example 39, 1-(3-methoxy-4-methyl-1-phenyl-1H-pyrazol-5-yl)-3-(1-methyl-1,2,3,4-tetrahydroquinolin-4-yl)urea] cannot be ordered by pIC50: over 7.00 for the first, over 7.00 for the second.

`Cc1c(-c2cnn(C)c2)nn(-c2ccccc2)c1NC(=O)N[C@@H]1c2cc(Cl)ccc2C(C)(C)C[C@H]1O` (relative stereo) [Example 104, 1-(trans-7-chloro-2-hydroxy-4,4-dimethyl-1,2,3,4-tetrahydronaphthalen-1-yl)-3-(1′,4-dimethyl-1-phenyl-1H,1′H-[3,4′-bipyrazol]-5-yl)urea] and `Cc1ncc(-c2nn(-c3ccccc3)c(NC(=O)N[C@@H]3c4ccccc4C(C)(C)C[C@H]3O)c2C)cn1` [Example 117, 1-((1,2-trans)-2-hydroxy-4,4-dimethyl-1,2,3,4-tetrahydronaphthalen-1-yl)-3-(4-methyl-3-(2-methylpyrimidin-5-yl)-1-phenyl-1H-pyrazol-5-yl)urea] cannot be ordered by pIC50: over 7.00 for the first, over 7.00 for the second.

`CCN1Cc2ccccc2C(NC(=O)Nc2c3c(nn2-c2ccccc2)CCC3)C1` (stereo not drawn) [Example 22, 1-(2-ethyl-1,2,3,4-tetrahydroisoquinolin-4-yl)-3-(2-phenyl-2,4,5,6-tetrahydrocyclopenta[c]pyrazol-3-yl)urea] and `Cc1c(-c2cnn(C)c2)nn(-c2ccccc2)c1NC(=O)N[C@@H]1CCCc2ccccc21` [Example 4, (R)-1-(1′,4-dimethyl-1-phenyl-1H,1′H-3,4′-bipyrazol-5-yl)-3-(1,2,3,4-tetrahydronaphthalen-1-yl)urea] fall in the same range of pIC50: 6.00 to 7.00 for the first, 6.00 to 7.00 for the second.

First: COCCO[C@H]1Cc2ccccc2[C@@H]1NC(=O)Nc1c(Br)c(C)nn1-c1ccccc1 [Example 52, 1-(4-bromo-3-methyl-1-phenyl-1H-pyrazol-5-yl)-3-((1S,2S)-2-(2-methoxyethoxy)-2,3-dihydro-1H-inden-1-yl)urea]
Second: Cc1c(-c2cnn(C)c2)nn(-c2ccccc2)c1NC(=O)NC1COCc2ccc(Br)cc21 (stereo not drawn) [Example 10, 1-(6-bromoisochroman-4-yl)-3-(1′,4-dimethyl-1-phenyl-1H,1′H-[3,4′-bipyrazol]-5-yl)urea]
The pIC50 of the first is lower: 6.00 to 7.00 for the first, over 7.00 for the second. The second is the more potent here.
